From patent US20260215432A1, “ANTIMICROBIAL CONJUGATED OLIGOELECTROLYTES AND METHODS THEREOF” (National University of Singapore, priority 2023, published 2026)

What was measured:
[1] = system: P. aeruginosa (ATCC47085); assay: Minimum bactericidal concentration (MBC); format: cell-based; conditions: strain PA (PAO1); unit printed in b207 only
Protocol: (§1) To study the extent to which TPP-COEs can effectively kill bacteria, bacteria cells treated with DM6P at varying concentrations were plated onto Tryptic Soy Agar (TSA) and the minimum bactericidal concentration (MBC), where complete eradication of the inoculum occurred, was determined (Table 5). MBC values ranged from 2 μg mL^−1 towards MRSA to 8 μg mL^−1 towards PAO1 and stayed within a two to four-fold range of the MIC values for all strains tested.
(§2) Bacteria samples treated with DM6P at varying concentrations from a broth microdilution method in a 96-well plate according to the methods for determining the MIC. Colonies were plated on TSB agar plates with 20 μL inoculation and the plates incubated at 37° C. overnight. […] All measurements were performed in triplicate.

A. baumanii (ATCC 17978) = assay: Minimum bactericidal concentration (MBC); format: cell-based; conditions: strain AB; unit printed in b207 only
Protocol: as §1, §2

[2] = system: E. coli. K12 (ATCC 10798); assay: Minimum bactericidal concentration (MBC); format: cell-based; conditions: strain EC; unit printed in b207 only
Protocol: as §1, §2

[3] = mice
Protocol: At the end-point, mice were sacrificed and the individual organs and blood samples were collected. Tissues were fixed in 10% neutral-buffered formalin (NBF) for 48 hours and subjected to H&E staining and examination. Clinical blood biomarkers were analysed with a Pointcare® cM4 Blood Chemistry Analyzer (Tianjin MNCHIP Technologies Co., Ltd) according to the manufacturer's protocol.

[4] = 0.25 mg kg^−1, blood after 14 days, mean ± s.d. (n = 3)

With COc1cc(/C=C/c2ccc(OCCCCCC[P+](c3ccccc3)(c3ccccc3)c3ccccc3)c(OC)c2)ccc1OCCCCCC[P+](c1ccccc1)(c1ccccc1)c1ccccc1.[I-].[I-] [DM6P] the MBC [1] was 8 µg/mL, the MBC (A. baumanii (ATCC 17978)) was 32 µg/mL and the MBC [2] was 2 µg/mL. The “ALB (albumin)” value [3, 4] was 30 ± 3.3 g/L, the “ALT (alanine transaminase)” value [3, 4] was 38.7 ± 4.1 U/L and the “AST (aspartate aminotransferase)” value [3, 4] was 205 ± 50.7 U/L. The “BUN (blood urea nitrogen)” value [3, 4] was 6.7 ± 0.3 mM, the CRE [3, 4] was 63.7 ± 10.1 µM and the “GGT (gamma-glutamyl transferase)” value [3, 4] was 0.6 ± 0.1 U/L. The “GLO (globulin)” value [3, 4] was 18.6 ± 1.5 g/L, the “TBIL (total bilirubin)” value [3, 4] was 2.9 ± 0.5 µM and the “TP (total protein)” value [3, 4] was 48.6 ± 1.9 g/L. The “blood biomarker levels compared to saline-treated controls” value ([3]; 0.25 mg/kg, after 14 days) was “no significant difference” and the “H&E staining of the major organs” value ([3]; DM6P treated, 14 days post-treatment) was “did not reveal any abnormal signs”.
